Measured values reported in publication PMC12383145, “Fluorescent Peptides Internalize HeLa Cells and Kill Multidrug-Resistant Clinical Bacterial Isolates” (Antibiotics, 2025).
Several values for one entry are separate records, joined by “and”; a condition that tells them apart may be missing. Equal entries are not always repeated. Where two headings read alike, the source gives them in different places. No end group written: not given here.

How the values were obtained:
Format in all cases: cell-based
[1] = system: K. pneumoniae ATCC 700603; settings: K. pneumoniae ATCC 700603
Protocol: (§1) The minimum inhibitory concentration (MIC) of the peptides was determined by the broth microdilution technique, according to the Clinical and Laboratory Standards Institute (CLSI) guidelines, as previously described. Briefly, bacterial strains were incubated in BHI broth at 37 °C until they reached the exponential growth phase, and inocula were adjusted to 5 × 10^6 CFU/mL using calibration curves. Serial dilutions of the peptides to be evaluated in 96-well plates were made in 90 µL of Mueller Hinton broth at concentrations ranging from 200 to 6.25 µg/mL, and 10 µL of the inoculum adjusted to 5 × 10^6 CFU/mL was added. Finally, the plates were incubated at 37 °C for 24 h, and the absorbance at 620 nm was read. As a negative control, CMH, distilled water, and 10 µL of inoculum were used; for the positive control, vancomycin was used for Gram-positive strains and ciprofloxacin for Gram-negative strains at the MICs dictated by the CLSI; as a technical control, CMH with peptone water was used, and for the growth control, CMH was used with 10 µL of inoculum.
(§2) To determine the minimum bactericidal concentration (MBC), the 96-well plates where the MIC was determined were used as a starting point. From these, an aliquot of the controls and those wells where no apparent bacterial growth was observed were spotted onto trypticase soy agar plates. The plates were incubated at 37 °C for 24 h, and the reading was taken, identifying the lowest concentration of the peptide where there was no bacterial growth as the MBC.

S. aureus ATCC 25923 = settings: S. aureus ATCC 25923
Protocol: as §1, §2

P. aeruginosa ATCC 27853 = settings: P. aeruginosa ATCC 27853
Protocol: as §1, §2

E. coli ATCC 25922 = settings: E. coli ATCC 25922
Protocol: as §1, §2

E. faecalis ATCC 29212 = settings: E. faecalis ATCC 29212
Protocol: as §1, §2

[2] = system: clinical isolates of S. aureus; settings: stated for the S. aureus clinical isolates together
Protocol: E. coli isolates 1004 (susceptible), 129797 (resistant), and 301755 (MDR) were selected for evaluation. Isolate 1004 was sensitive to all antibiotics tested. […] These findings identify it as a multidrug-resistant (MDR) strain and an extended-spectrum beta-lactamase (ESBL)-producing bacterium. For S. aureus, isolates 109095, 117719, and 124653 were evaluated. All three were resistant to penicillin, indicating beta-lactamase production mediated by the blaZ gene. Studies have shown that up to 90% of S. aureus isolates worldwide are penicillin-resistant, which implies that this antibiotic is ineffective in infections caused by this pathogen. […] Isolate 124653 was resistant to penicillin, tetracycline, and erythromycin, with the latter belonging to the group of macrolides, antibiotics that inhibit protein synthesis through interaction with the 50S rRNA subunit. […]
The minimum inhibitory concentration (MIC) of the peptides was determined by the broth microdilution technique, according to the Clinical and Laboratory Standards Institute (CLSI) guidelines, as previously described. […] Serial dilutions of the peptides to be evaluated in 96-well plates were made in 90 µL of Mueller Hinton broth at concentrations ranging from 200 to 6.25 µg/mL, and 10 µL of the inoculum adjusted to 5 × 10^6 CFU/mL was added. Finally, the plates were incubated at 37 °C for 24 h, and the absorbance at 620 nm was read. […]

[3] = system: S. aureus clinical isolate 11719; settings: S. aureus clinical isolate 11719
[4] = system: E. coli clinical isolate 301755 (MDR); settings: E. coli clinical isolate 301755
Protocol: (§3) E. coli isolates 1004 (susceptible), 129797 (resistant), and 301755 (MDR) were selected for evaluation. Isolate 1004 was sensitive to all antibiotics tested. […] These findings identify it as a multidrug-resistant (MDR) strain and an extended-spectrum beta-lactamase (ESBL)-producing bacterium. For S. aureus, isolates 109095, 117719, and 124653 were evaluated. All three were resistant to penicillin, indicating beta-lactamase production mediated by the blaZ gene. Studies have shown that up to 90% of S. aureus isolates worldwide are penicillin-resistant, which implies that this antibiotic is ineffective in infections caused by this pathogen. […] Isolate 124653 was resistant to penicillin, tetracycline, and erythromycin, with the latter belonging to the group of macrolides, antibiotics that inhibit protein synthesis through interaction with the 50S […] subunit. For E. faecalis three isolates were selected: strains 213 (sensitive to all the antibiotics tested), strain 82 (resistant to streptomycin), and strain 179 (resistant to gentamicin). These clinical isolates were selected to assess the antimicrobial activity of the peptide RWQWRWQWR and its analogues conjugated to fluorescent molecules in strains against strains with susceptibility profiles.
(§4) The analysis of synthesized peptides in ATCC reference strains and susceptible, resistant, and multidrug-resistant (MDR) clinical isolates was performed. The clinical isolates were obtained from the National Cancer Institute collection and were previously identified and antibiogrammed using the VITEK system. Additionally, the strains were characterized by MALDI-TOF. The strains were re-primed onto trypticase soy agar and subsequently preserved in Brain–Heart Infusion (BHI) broth containing 20% glycerol. For the MIC and MBC assays, the strains were reactivated and cultured in BHI until they reached their exponential growth phase.
as §1, §2

[5] = system: E. faecalis clinical isolate 213; settings: E. faecalis clinical isolate 213
Protocol: as §3, §4, §1, §2

[6] = system: S. aureus clinical isolate 124653; settings: S. aureus clinical isolate 124653
Protocol: as §3, §4, §1, §2

[7] = system: E. coli clinical isolate 1004 (susceptible); settings: E. coli clinical isolate 1004
Protocol: as §3, §4, §1, §2

[8] = system: E. coli clinical isolate 129797 (resistant); settings: E. coli clinical isolate 129797
Protocol: as §3, §4, §1, §2

[9] = system: S. aureus clinical isolate 109095; settings: S. aureus clinical isolate 109095
Protocol: as §3, §4, §1, §2

[10] = system: E. faecalis clinical isolate 82; settings: E. faecalis clinical isolate 82
Protocol: as §3, §4, §1, §2

[11] = system: clinical isolates of E. coli; settings: stated for the E. coli clinical isolates together
Protocol: as §3, §4, §1, §2

[12] = system: E. faecalis clinical isolate 179; settings: E. faecalis clinical isolate 179
Protocol: as §3, §4, §1, §2

Hemolysis assay = assay: Hemolysis assay
Protocol: Whole blood was collected into EDTA tubes and centrifuged at 2500 rpm for 10 min. The plasma and buffy coat were removed, and the erythrocytes were washed three times with 0.9% saline to yield a 4% cell suspension. In 96-well plates, 100 µL of peptide dilutions (6.25–200 µg/mL) were prepared in triplicate, and 100 µL of the erythrocyte suspension was added (final hematocrit 2%). Plates were incubated at 37 °C for 2 h, and then centrifuged again at 2500 rpm for 10 min. A 100 µL aliquot of the supernatant was transferred to a fresh plate, and absorbance was measured at 450 nm. Saline and 1× Triton X-100 served as the negative and positive controls, respectively. Hemolysis (%) was calculated as follows: %hemolysis=treatment absorbance−saline absorbance/1×triton absorbance−saline absorbance

HeLa cells = assay: MTT cytotoxicity assay in HeLa cells; settings: HeLa cells, 200 µg/mL; listed as palindromic peptide
Protocol: (§5) MTT assays were conducted in HeLa cells to evaluate the effect of fluorescent probe incorporation on the in vitro cytotoxic activity of the parent non-conjugated peptides. The cytotoxic effect of peptides 1, Abz-1 RhB-1, 2, and RhB-2 in HeLa cells was peptide concentration-dependent, with the highest anticancer activity observed at 200 µg/mL. Incorporation of 2-Abz and RhB at the N-terminal end reduced cytotoxic activity, while the binding of 2-Abz at the C-terminal end or FAM at the N-terminal end drastically diminished anticancer activity (Table 4).

[13] = MTT cytotoxicity assay in HeLa cells; settings: HeLa cells, MTT; read-out: Cytotoxic Activity (IC50)
Protocol: as §5

**Q.** Which “Minimal bactericidal concentration (MBC)” value [1] does the source give for RWQWRWQWR-NH2 [peptide 1, RWQWRWQWR] here?
**A.** 135 µM

**Q.** And the “Minimal inhibitory concentration (MIC)” value [1]?
**A.** 67 µM

**Q.** And the “Minimal bactericidal concentration (MBC)” value (S. aureus ATCC 25923)?
**A.** 34 µM

**Q.** And the “Minimal inhibitory concentration (MIC)” value (S. aureus ATCC 25923)?
**A.** 17 µM

**Q.** And the “Minimal bactericidal concentration (MBC)” value (P. aeruginosa ATCC 27853)?
**A.** > 135 µM

**Q.** What about the “Minimal inhibitory concentration (MIC)” value (P. aeruginosa ATCC 27853) of the same substance?
**A.** 67 µM

**Q.** What about the “Minimal bactericidal concentration (MBC)” value (E. coli ATCC 25922) of the same substance?
**A.** 34 µM

**Q.** And the “Minimal inhibitory concentration (MIC)” value (E. coli ATCC 25922)?
**A.** 17 µM

**Q.** What about the Minimal bactericidal concentration (MBC) (E. faecalis ATCC 29212) of the same substance?
**A.** > 135 µM

**Q.** What about the Minimal inhibitory concentration (MIC) (E. faecalis ATCC 29212) of the same substance?
**A.** 135 µM

**Q.** And the MIC [2]?
**A.** 135 µM

**Q.** What about the Minimal bactericidal concentration (MBC) [3] of the same substance?
**A.** > 135 µM

**Q.** What about the Minimal inhibitory concentration (MIC) [3] of the same substance?
**A.** 135 µM

**Q.** And the “Minimal bactericidal concentration (MBC)” value [4]?
**A.** 67 µM

**Q.** And the “Minimal inhibitory concentration (MIC)” value [4]?
**A.** 34 µM

**Q.** What about the Minimal bactericidal concentration (MBC) [5] of the same substance?
**A.** 135 µM

**Q.** And the Minimal inhibitory concentration (MIC) [5]?
**A.** 135 µM

**Q.** And the Minimal bactericidal concentration (MBC) [6]?
**A.** > 135 µM

**Q.** And the Minimal inhibitory concentration (MIC) [6]?
**A.** 135 µM

**Q.** What about the “Minimal bactericidal concentration (MBC)” value [7] of the same substance?
**A.** > 135 µM

**Q.** What about the “Minimal inhibitory concentration (MIC)” value [7] of the same substance?
**A.** 17 µM

**Q.** And the “Minimal inhibitory concentration (MIC)” value [8]?
**A.** 34/34 µM

**Q.** And the Minimal bactericidal concentration (MBC) [9]?
**A.** 135 µM

**Q.** And the Minimal inhibitory concentration (MIC) [9]?
**A.** 135 µM

**Q.** What about the “Minimal bactericidal concentration (MBC)” value [10] of the same substance?
**A.** 67/67 µM

**Q.** And the MIC [11]?
**A.** 17 to 34 µM

**Q.** And the Minimal bactericidal concentration (MBC) [12]?
**A.** 135 µM

**Q.** And the Minimal inhibitory concentration (MIC) [12]?
**A.** 135 µM

**Q.** What about the hemolysis (Hemolysis assay; at 200 µg/mL (highest tested concentration), 2 h, 37 °C, read-out: hemolysis) of the same substance?
**A.** 4.5%

**Q.** And the hemolysis (Hemolysis assay; at the lowest MIC concentration, read-out: Percentage of hemolysis)?
**A.** 1.1%

**Q.** What about the selectivity ratio (Hemolysis assay; peptide concentration at 10% hemolysis / IC50 in HeLa cells, read-out: Selectivity index) of the same substance?
**A.** > 3

**Q.** What about the cell viability (HeLa cells) of the same substance?
**A.** about 20%

**Q.** What about the IC50 [13] of the same substance?
**A.** 77 µg/mL and 52 µM
